Measured values: patent US20220331348A1, “METHOD OF PREPARING PENTACYCLIC TRITERPENOID SAPONINS AND DRUG COMPOSITION” (CHINA PHARMACEUTICAL UNIVERSITY, priority 2019, published 2022)
Marks after values point to notes of the source that are not given here.

Assays:
AMPK in Huh-7 cells = experiment: Activation activity on AMPK in Huh-7 cells (Western Blot); assay type: cell-based; conditions: 10 μM, 12 h, Western Blot gray scale, relative to DMSO = 1
Experimental: The activation activity of a compound on AMPK in Huh-7 cells was detected by using Western Blot.
Cell culture conditions: Huh-7 cells were cultured in an incubator with 5% CO2 at 37° C. in DMEM complete medium (containing 10% fetal calf serum and 1% streptomycin/penicillin).
Antibody: anti-AMPK (CST, 2532S); anti-pAMPK (CST, 2535S).
Western Blot experiment: the influence of the compound on phosphorylation level of the AMPK in the Huh-7 cells was detected: cells with more than 90% cells alive were taken for the experiment. In a 12-well plate, the Huh-7 cells were plated in the plate at 250000 cells per well, the plate was placed in the incubator with 5% CO2 at 37° C. for culture, an original culture medium was discarded after 12 h, a complete medium containing the pentacyclic triterpenoid saponin was added, a final concentration of subject pentacyclic triterpenoid saponin was set to be 10 μM, and an administration time was set to be 12 h. A positive control compound employs AICAR (100 μM), metformin (70 μM) or A-769662 (100 μM). Then proteins were extracted for Western Blot detection.
Experimental result: a Western Blot experimental result was subjected to gray scale scanning, a p-AMPK/AMPK ratio of negative control DMSO was defined as 1, and a p-AMPK/AMPK ratio of the subject compound was a relative ratio of a negative control group. The larger the numerical value was, the stronger the activation activity of the AMPK of the compound was.

[1] = tested on: high fat diet induced NASH model rats; experiment: High fat diet (HFD) induced NASH rat model; assay type: in vivo; design: MDA: unit not given here
Experimental: Animal: 32 SD male rats of SPF level with 6 weeks old and 220 g were purchased from Beijing Vital River Laboratory Animal Technology Co., Ltd. All the animals maintained 12 h alternative circadian rhythm with free access to food.
Reagent: the ginsenoside Ro (I) was purchased from Shanghai Boka Chemistry Technology Co., Ltd; obeticholic acid (OCA) was purchased from Jiangsu Vcare PharmaTech Co., Ltd; high fat diets were purchased from Research Diets (D12492, 60 kcal %); and standard feeds were purchased from Research Diets (D12450B, 10 kcal %).
The rats were randomly divided into 4 groups based on the weight: a control group (CHOW), a high fat diet model group (HFD), a positive drug obeticholic acid (OCA, 5 mg/Kg) group (HFD+OCA) and a ginsenoside Ro (Ro for short, 5 mg/kg) group (HFD+Ro). The control group was fed with the standard feeds and drank water normally; and the rest groups were fed with the high fat diets, drank 10% aqueous sucrose solution for replacing the water and were modeled for 20 weeks.
After 20 weeks, the control group and the high fat diet model group were given with a CMC-Na solution with the volume fraction of 0.5% intragastrically every day, the HFD+OCA group was given with the obeticholic acid (5 mg/Kg) intragastrically every day, and the HFD+Ro was given with the ginsenoside Ro (5 mg/Kg) intragastrically every day. Administration was conducted for 8 weeks, during which, the control group was given with the standard feeds and drank the water normally, and the rest three groups were given with the high fat diets and drank 10% aqueous sucrose solution. The rats in each group were weighed every day, weights, hairs, feces and activity conditions were carefully observed and recorded.
The rats were deprived of food but not water for 12 h in advance; and the next morning, blood was taken from eye sockets, the rats were sacrificed, and livers were harvested. Right liver lobule tissues were fixed with 4% paraformaldehyde for HE stained slicing. A part of liver tissues were divided into 3 parts, which were snap-frozen in liquid nitrogen for subsequent detection of other indexes.
Whole blood was left to still standing for 2 h at room temperature, centrifugation was conducted for 15 min at 3000 rpm, and a serum was collected. 100 Mg of liver tissues were taken and homogenized with 0.9 mL of precooled normal saline, a homogenate was centrifuged for 15 min at 4° C. and 3000 rpm, and a supernatant was taken. Both of the serum and the supernatant were sent to Pathologic Department of Hospital of Integrated Traditional Chinese and Western Medicine in Jiangsu Province for determination of levels of triglyceride (TG), total cholesterol (TC), low density lipoprotein cholesterin (LDL-c) and high density lipoprotein cholesterol (HDL-c) in the serum and levels of the TG and the TC in the supernatant of the homogenate of the liver tissues with the full-automatic biochemical analyzer.
Pretreated tissues were sent to Google Biotechnology Co., Ltd for preparing HE stained slices and oil red stained slices.
Liver tissues preserved at −80° C. were put in the liquid nitrogen, about 10 mg of the liver tissues were quickly dissected out, 500 μL of precooled tissue lysate was added, and the tissues were homogenized with a homogenizer and then left to lyse on ice for 30 min; and centrifugation was conducted for 15min at 4° C. and 12000 rpm, […] of a supernatant was sucked to a clean EP tube, […] of the supernatant was taken for BCA protein quantification, […] of 5*loading buffer was added in the rest protein supernatant for denaturing by boiling, SDS-PAGE electrophoresis was conducted subsequently, the proteins were transferred onto a PVDF membrane, then incubation and elution of a relevant antibody were conducted, and finally, a chemiluminescence apparatus was employed for imaging analysis.

[2] = tested on: human ADPKD cyst lining epithelial cell lines WT9-12; experiment: Proliferation of polycystic kidney epithelial cells (CCK-8 method); assay type: cell-based; conditions: polycystic kidney epithelial cells; 10 μM, 48 h; CCK-8; n = 6
Text: Cell and reagent: complete media for human ADPKD cyst lining epithelial cell lines WT9-12 and DMEM were purchased from ATCC Company; fetal calf serums were purchased from Gibco Company; Cell Counting Kit-8 was purchased from DOJINDO Company; Click-iT® EdU Imaging Kits were purchased from Invitrogen™ Thermo Fisher Scientific Company; Caspase -3/CPP32 Colorimetric Assay Kit was purchased from BioVision Company; Annexin V/PI double-staining flow type cell apoptosis detection kits were purchased from Bender Company; and anti-Phospho-(AMPKa, mTOR, p70S6K, 4E-BP1) antibodies were purchased from Cell Signaling Technology Company.
The influence of 2-DG on proliferation of the polycystic kidney epithelial cells was detected with a CCK-8 method: a DMEM complete medium containing 10% fetal calf serum (FBS) was prepared. The polycystic kidney epithelial cells were cultured in an incubator with 5% CO2 at 37° C. after being recovered, a solution was replaced every other day, the polycystic kidney epithelial cells were passaged every 2-3 days, and the cells were in a growing state of adhering to the wall. After trypsin enzyme digestion, cells were resuspended by using a complete medium, the concentration of a polycystic kidney epithelial cell suspension was regulated to be 3×10^7/L, the polycystic kidney epithelial cell suspension was inoculated to 96-well plate by […] per well for culture for 24 h, and the suspension was replaced by a culture medium containing 0.1% FBS for synchronization for 24 h.

[3] = HFD NASH rats, summary in words
[4] = HFD induced NASH model rats, 5 mg/Kg, n = 8
[5] = serum of HFD induced NASH model rats, 5 mg/Kg, n = 8

## madecassoside [(VI)]
AMPK in Huh-7 cells
  pAMPK/AMPK ratio: 2.27
[1]; [3]
  inflammatory responses of the livers: inhibit
  lipid accumulation, caused by the high fat diets, of the rat livers: effectively lower
[1]; [4]
  Liver TC: 0.472 ± 0.201** mmoL/gprot
  Liver TG: 1.240 ± 0.213** mmoL/gprot
  Serum LDL-c: 47.25 ± 7.45* mg/dL
  Serum TG: 18.83 ± 4.11** mg/dL
[1]; [5]
  ALT: 65.86 ± 10.43*** U/L
  AST: 127.21 ± 9.34* U/L
  MDA: 11.59 ± 2.88*
[2]
  Inhibition rate (%): 76.3 ± 2.3 %
